Reference: patent US7700347B2, “Methods and apparatuses for conducting assays in animals” (The Forsyth Institute, priority 2005, dated 2010)

Tested on: planaria
Assay: planaria movement (worm mobility) after drug treatment, automated tracking
Format: in vivo, Dugesia tigrinia
Settings: 24 hours of drug treatment, movement observed for three hours, compared to control carrier (water+DMSO), statistically significant
Method: The following methods were used for Examples 5-8. The species of planaria used in these studies was Dugesia tigrinia, obtained from Ward's Natural Science. The planaria colonies were stored in natural spring water at 22.5° C., and kept on a 9 hour light/15 hour dark cycle. The colonies were fed once per week with organic beef liver. Their water was changed several hours after feeding and 3 days following each feeding. Worms were not fed (e.g., they were starved) the week they were used in an experiment because starved worms were less likely to fission during the experiment.
For the duration of an experiment, individual worms were placed in a reaction well and a plurality of reaction wells were arrayed, as shown in FIG. 10. The worms were not fed during the experiment. Each reaction well included electrodes made of a 90%/10% platinum/iridium alloy for delivering current. […]
FIG. 16 summarizes results depicting the effects of two agents on planaria behavior. Specifically, we assessed the effects of two psychiatric drugs that modulate serotonergic signaling, p-chlorophenylalanine (PCPA) and reserpine, on worm mobility.
Briefly, planaria were cultured in the presence of control carrier (water+DMSO), 625 micrograms/mL of PCPA, or 21 micrograms/mL of reserpine. […] The speed, position, and distance traveled of individual worms were monitored following drug treatment and compared to controls. […]

SMILES | effect on planaria movement (worm movement, average speed) (625 micrograms/mL in culture) | effect on planaria movement (worm movement, average speed) (21 micrograms/mL in culture)
N[C@@H](Cc1ccc(Cl)cc1)C(=O)O (racemic) [PCPA, p-chlorophenylalanine] | increased planaria movement | 
COC(=O)[C@H]1[C@H]2C[C@@H]3c4[nH]c5cc(OC)ccc5c4CCN3C[C@H]2C[C@@H](OC(=O)c2cc(OC)c(OC)c(OC)c2)[C@@H]1OC [reserpine] |  | decreased planaria movement
